Experiment [1] relates to platelet aggregation caused by ADP in platelet-rich plasma (PRP). Nature of the experiment: Test Example 1: in vitro platelet aggregation inhibitory effect. The class given is cell-based, rat (male Sprague-Dawley). Particulars: 10 μg/ml test compound; rat PRP; ADP final concentration 10 μM; maximum platelet aggregation ratio. As for the experimental part: Male Sprague-Dawley rats (8-week old, Japan SLC, Inc.), 3 to 4 animals per group, were used for the test. The platelet aggregation was measured with an automatic platelet aggregometer (MCM Hema Tracer 313M, MC Medical, Inc.) by a partially modified method of Born et al., The Journal of Physiology, Vol. 168, Section 178 (1963). 6.3 ml of blood was sampled from the ventral aorta of a rat anesthetized with pentobarbital (40 mg/kg) using 3.8% (w/v) sodium citrate solution (0.7 ml) as an anticoagulant. The obtained blood containing citrate was centrifuged (230 g, 15 minutes, room temperature) to separate a platelet-rich plasma (hereinbelow abbreviated as PRP). The blood after the separation of PRP was further centrifuged (2,000 g, 10 minutes, room temperature) to separate a platelet-poor plasma (hereinbelow abbreviated as PPP). After the number of blood platelet in PRP was measured with a multi-item automatic blood corpuscle counter (KX-21N, Sysmex Corporation), PPP was added thereto to adjust the blood platelet count to 5×10^8/ml. After PRP (239 μl) was pipetted into cuvettes, test compounds (1 μl) dissolved in dimethylsulfoxide (DMSO) were added to PRP and the cuvettes were set in the automatic platelet aggregometer. DMSO (1 μl) was added in place of the test compounds for the control group. After preliminary warming (37° C.) for 1.5 minutes, 10 μl of adenosine 5′-diphosphate (ADP) solution (final concentration at 10 μM) was added to cause platelet aggregation. Platelet aggregation was measured for 5 minutes and the maximum platelet aggregation ratio was determined.

Experiment [2] has as its system platelet aggregation caused by ADP in platelet-rich plasma (PRP) after oral administration. Nature of the experiment: Test Example 2: ex vivo platelet aggregation inhibitory effect. The experiment is classed as in vivo, rat (male Sprague-Dawley). To be noted: 4 hours before blood sampling, rat PRP, ADP final concentration 3 μM, maximum platelet aggregation ratio; for inhibition at 10 mg/kg: 10 mg/kg orally, read-out: Test Example 1 (% inhibition) 10 mg/kg. As for the experimental part:
Male Sprague-Dawley rats (8-week old, Japan SLC, Inc.), 3 to 4 animals per group, were used for the test. The platelet aggregation was measured with an automatic platelet aggregometer (MCM Hema Tracer 313M, MC Medical, Inc.) by a partially modified method of Bom et al., The Journal of Physiology, Vol. 168, Section 178 (1963). Test compounds suspended in 5% Arabian gum solution or 10% dimethylacetamide/64% polyethylene glycol 400/16% Tween 80 solution were orally administered in a dose ratio of 1 mL/kg 4 hours before blood sampling. Vehicle was orally administered 4 hours in a dose ratio of 1 mL/kg before the sampling of the blood for the control group. 6.3 ml of blood was sampled from the ventral aorta of a rat anesthetized with pentobarbital (40 mg/kg) using 3.8% (w/v) sodium citrate solution (0.7 ml) as an anticoagulant. The obtained blood containing citrate was centrifuged (230 g, 15 minutes, room temperature) to separate PRP. The blood after the separation of PRP was further centrifuged (2,000 g, 10 minutes, room temperature) to separate PPP. After the number of blood platelet in PRP was measured with a multi-item automatic blood corpuscle counter (KX-21N, Sysmex Corporation), PPP was added thereto to adjust the blood platelet to 5×10^8/ml. After PRP (240 μl) was pipetted into cuvettes, the cuvettes were set in the automatic platelet aggregometer. After preliminary warming (37° C.) for 1.5 minutes, 10 μl of ADP solution (final concentration 3 μM) was added to cause platelet aggregation. Platelet aggregation was measured for 5 minutes and the maximum platelet aggregation ratio was determined.

Structures can show the parent of a compound that is named as a salt.

`O=C(O)CN1CCN(C/C=C2\CN(C(C(=O)C3CC3)c3ccccc3F)CCC2S)CC1=O` (centres unmarked) [Example 15, (E)-3-{2-[4-(Carboxymethyl)-3-oxopiperazin-1-yl]ethylidene}-1-[2-cyclopropyl-1-(2-fluorophenyl)-2-oxoethyl]-4-sulfanylpiperidine dihydrochloride]: in experiment [1], the inhibition at 10 µg/mL was 90%. `COC(=O)CCN1CCN(C/C=C2\CN(C(C(=O)C3CC3)c3ccccc3F)CCC2S)CC1=O` (centres unmarked) [Example 18, (E)-1-[2-Cyclopropyl-1-(2-fluorophenyl)-2-oxoethyl]-3-(2-{4-[2-(methoxycarbonyl)ethyl]-3-oxopiperazin-1-yl}ethylidene)-4-sulfanylpiperidine dihydrochloride]: in experiment [1], the inhibition at 10 µg/mL came out at 73%. Further, the inhibition at 10 mg/kg in experiment [2] amounted to 74%.

For the molecule `O=C(O)CCN1CCN(C/C=C2\CN(C(C(=O)C3CC3)c3ccccc3F)CCC2S)CC1=O` (centres unmarked) [Example 19, (E)-3-(2-{4-[2-(Carboxyethyl)]-3-oxopiperazin-1-yl}ethylidene)-1-[2-cyclopropyl-1-(2-fluorophenyl)-2-oxoethyl]-4-sulfanylpiperidine dihydrochloride], the inhibition at 10 µg/mL in experiment [1] came out at 77%. In addition, the inhibition at 10 mg/kg in experiment [2] was found to be 60%. With `CCOC(=O)CCN1CCN(C/C=C2\CN(C(C(=O)C3CC3)c3ccccc3F)CCC2S)C(=O)C1` (centres unmarked) [Example 22, (E)-1-[2-Cyclopropyl-1-(2-fluorophenyl)-2-oxoethyl]-3-(2-{4-[2-(ethoxycarbonyl)ethyl]-2-oxopiperazin-1-yl}ethylidene)-4-sulfanylpiperidine dihydrochloride], in experiment [1], the inhibition at 10 µg/mL was 67%. Besides, in experiment [2], the inhibition at 10 mg/kg came to 79%. For `O=C(O)CCN1CCN(C/C=C2\CN(C(C(=O)C3CC3)c3ccccc3F)CCC2S)C(=O)C1` (centres unmarked) [Example 23, (E)-3-(2-{4-[2-(Carboxyethyl)]-2-oxopiperazin-1-yl}ethylidene)-1-[2-cyclopropyl-1-(2-fluorophenyl)-2-oxoethyl]-4-sulfanylpiperidine dihydrochloride], in that order: 77% and 72%.

As to `O=C(O)c1cnn(C/C=C2\CN(C(C(=O)C3CC3)c3ccccc3F)CCC2S)c1` (centres unmarked) [Example 44, (E)-3-[2-(4-Carboxy-1H-pyrazol-1-yl)ethylidene]-1-[2-cyclopropyl-1-(2-fluorophenyl)-2-oxoethyl]-4-sulfanylpiperidine hydrochloride], the inhibition at 10 µg/mL in experiment [1] was 81%. In experiment [2] (3 mg/kg orally, read-out: Test Example 1 (% inhibition) 3 mg/kg), the inhibition at 3 mg/kg was found to be 61%. As to `CCOC(=O)c1cn(C/C=C2\CN(C(C(=O)C3CC3)c3ccccc3F)CCC2S)nn1` (centres unmarked) [Example 50, (E)-1-[2-Cyclopropyl-1-(2-fluorophenyl)-2-oxoethyl]-3-[2-(4-ethoxycarbonyl-1H-1,2,3-triazol-1-yl)ethylidene]-4-sulfanylpiperidine hydrochloride], in experiment [1], the inhibition at 10 µg/mL worked out at 79%. The same measure, in the same setting: to `O=C(O)c1cn(C/C=C2\CN(C(C(=O)C3CC3)c3ccccc3F)CCC2S)nn1` (centres unmarked) [Example 51, (E)-3-[2-(4-Carboxy-1H-1,2,3-triazol-1-yl)ethylidene]-1-[2-cyclopropyl-1-(2-fluorophenyl)-2-oxoethyl]-4-sulfanylpiperidine hydrochloride] belongs 81%. In the case of `O=C(O)Cc1cnn(C/C=C2\CN(C(C(=O)C3CC3)c3ccccc3F)CCC2S)c1` (centres unmarked) [Example 74, (E)-3-{2-[4-(Carboxymethyl)-1H-pyrazol-1-yl]ethylidene}-1-[2-cyclopropyl-1-(2-fluorophenyl)-2-oxoethyl]-4-sulfanylpiperidine hydrochloride], the inhibition at 10 µg/mL in experiment [1] was 80%. Besides, the inhibition at 10 mg/kg in experiment [2] stood at 100%.

Take `CN(C/C=C1\CN(C(C(=O)C2CC2)c2ccccc2F)CCC1S)CC(=O)O` (centres unmarked) [Example 83, (E)-3-{2-[N-(Carboxymethyl)-N-methylamino]ethylidene}-1-[2-cyclopropyl-1-(2-fluorophenyl)-2-oxoethyl]-4-sulfanylpiperidine dihydrochloride]: the inhibition at 10 µg/mL in experiment [1] was determined as 68%. Still for that read-out and setting: to `CN(C/C=C1/CN(C(C(=O)C2CC2)c2ccccc2F)CCC1S)CC(=O)O` (centres unmarked) [Example 86, (Z)-3-{2-[N-(Carboxymethyl)-N-methylamino]ethylidene}-1-[2-cyclopropyl-1-(2-fluorophenyl)-2-oxoethyl]-4-sulfanylpiperidine dihydrochloride] belongs 82%. Still for that read-out and setting: then `CN(C/C=C1/CN(C(C(=O)C2CC2)c2ccccc2F)CCC1S)CCCC(=O)O` (centres unmarked) [Example 91, (Z)-3-(2-{N-[3-(Carboxy)propyl]-N-methylamino}ethylidene)-1-[2-cyclopropyl-1-(2-fluorophenyl)-2-oxoethyl]-4-sulfanylpiperidine dihydrochloride], with 74%. As for `O=C(O)c1cnn(C/C=C2/CN(C(C(=O)C3CC3)c3ccccc3F)CCC2S)c1` (centres unmarked) [Example 111, (Z)-3-[2-(4-Carboxy-1H-pyrazol-1-yl)ethylidene]-1-[2-cyclopropyl-1-(2-fluorophenyl)-2-oxoethyl]-4-sulfanylpiperidine hydrochloride], the inhibition at 10 µg/mL in experiment [1] came out at 82%. The inhibition at 10 mg/kg in experiment [2] came out at 82%.
